Reference: patent US7501422B2, “Prolinamide-tetrazole derivatives as NK3 receptor antagonists” (Hoffmann-La Roche Inc., priority 2007, dated 2009)

Experiments:
[1] = molecular target: T1, recombinant human NK3 receptor (Homo sapiens, UniProt P29371); assay: [3H]SR142801 competition binding assay; conditions: membranes from HEK293 cells transiently expressing recombinant human NK3 receptor; [3H]SR142801 radioligand; read-out: Data Ki (hNK-3 receptor affinity)
T1 construct: expressed in transfected cells; host or cells: HEK293 cells, transient expression; membranes
T1 sequence (P29371 1-465): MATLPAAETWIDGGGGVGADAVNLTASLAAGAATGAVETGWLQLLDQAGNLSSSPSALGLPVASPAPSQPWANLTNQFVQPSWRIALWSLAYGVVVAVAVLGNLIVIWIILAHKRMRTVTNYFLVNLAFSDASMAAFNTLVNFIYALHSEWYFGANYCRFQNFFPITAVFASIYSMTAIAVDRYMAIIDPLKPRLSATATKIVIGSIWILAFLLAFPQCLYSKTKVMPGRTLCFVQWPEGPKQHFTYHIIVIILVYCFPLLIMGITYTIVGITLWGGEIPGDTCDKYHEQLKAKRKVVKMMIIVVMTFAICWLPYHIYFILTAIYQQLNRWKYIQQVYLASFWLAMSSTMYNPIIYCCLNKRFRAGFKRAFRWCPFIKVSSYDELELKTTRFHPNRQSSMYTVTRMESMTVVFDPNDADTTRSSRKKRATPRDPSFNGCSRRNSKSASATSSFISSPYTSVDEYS
Description: [^3H]SR142801 Competition Binding Assay
hNK3 receptor binding experiment were performed using [^3H]SR142801 (Catalog No. TRK1035, specific activity: 74.0 Ci/mmol, Amersham, G E Healthcare UK limited, Buckinghamshire, UK) and membrane isolated from HEK293 cells transiently expressing recombinant human NK3 receptor. After thawing, the membrane homogenates were centrifuged at 48,000×g for 10 min at 4° C., the pellets were resuspended in the 50 mM Tris-HCl, 4 mM MnCl2, 1 μM phosphoramidon, 0.1% BSA binding buffer at pH 7.4 to a final assay concentration of 5 μg protein/well. For inhibition experiments, membranes were incubated with [^3H]SR142801 at a concentration equal to KD value of radioligand and 10 concentrations of the inhibitory compound (0.0003-10 μM) (in a total reaction volume of 500 μl) for 75 min at room temperature (RT). At the end of the incubation, membranes were filtered onto unitfilter (96-well white microplate with bonded GF/C filter preincubated 1 h in 0.3% PEI+0.3% BSA, Packard BioScience, Meriden, Conn.) with a Filtermate 196 harvester (Packard BioScience) and washed 4 times with ice-cold 50 mM Tris-HCl, pH 7.4 buffer. Nonspecific binding was measured in the presence of 10 μM SB222200 for both radioligands. The radioactivity on the filter was counted (5 min) on a Packard Top-count microplate scintillation counter with quenching correction after addition of 45 μl of microscint 40 (Can berra Packard S. A., Zürich, Switzerland) and shaking for 1 h. Inhibition curves were fitted according to the Hill equation: y=100/(1+(x/IC50)^nH), where nH=slope factor using Excel-fit 4 software (Microsoft). IC50 values were derived from the inhibition curve and the affinity constant (Ki) values were calculated using the Cheng-Prussoff equation Ki=IC50/(1+[L]/KD) where [L] is the concentration of radioligand and KD is its dissociation constant at the receptor, derived from the saturation isotherm. All experiments were performed in duplicate and the mean±standard error (SEM) of the individual Ki values was calculated.

NK3 tachykinin receptor = molecular target: T2, NK3 tachykinin receptor (Homo sapiens, UniProt P29371); conditions: phase II trial, cited from earlier work
T2 sequence (P29371 1-465): T1 sequence (P29371 1-465)

| SMILES | Ki [1] [nM] | activity in treatment of negative symptoms of schizophrenia (NK3 tachykinin receptor; negative symptoms (depression, anhedonia, social isolation, memory and attention deficits)) | activity on positive symptoms of schizophrenia (NK3 tachykinin receptor; positive symptoms (altered behavior, delusion, hallucinations, extreme emotions, excited motor activity, incoherent speech)) |
| --- | --- | --- | --- |
| N#Cc1ccccc1N1CCN(C(=O)[C@@H]2C[C@H](n3nnc(-c4ccc(F)cc4F)n3)CN2Cc2ccccc2)CC1 [Example 1, 2-(4-{(2S,4S)-1-Benzyl-4-[5-(2,4-difluoro-phenyl)-tetrazol-2-yl]-pyrrolidine-2-carbonyl}-piperazin-1-yl)-benzonitrile] | 84 |  |  |
| N#Cc1ccccc1N1CCN(C(=O)[C@@H]2C[C@H](n3nnc(-c4ccc(F)cc4F)n3)CN2Cc2ccccc2F)CC1 [Example 2, 2-{4-[(2S,4S)-4-[5-(2,4-Difluoro-phenyl)-tetrazol-2-yl]-1-(2-fluoro-benzyl)-pyrrolidine-2-carbonyl]-piperazin-1-yl}-benzonitrile] | 23 |  |  |
| N#Cc1ccccc1N1CCN(C(=O)[C@@H]2C[C@H](n3nnc(-c4ccc(F)cc4F)n3)CN2Cc2cccc(F)c2)CC1 [Example 3, 2-{4-[(2S,4S)-4-[5-(2,4-Difluoro-phenyl)-tetrazol-2-yl]-1-(3-fluoro-benzyl)-pyrrolidine-2-carbonyl]-piperazin-1-yl}-benzonitrile] | 320 |  |  |
| N#Cc1ccccc1N1CCN(C(=O)[C@@H]2C[C@H](n3nnc(-c4ccc(F)cc4F)n3)CN2Cc2ccc(F)cc2)CC1 [Example 4, 2-{4-[(2S,4S)-4-[5-(2,4-Difluoro-phenyl)-tetrazol-2-yl]-1-(4-fluoro-benzyl)-pyrrolidine-2-carbonyl]-piperazin-1-yl}-benzonitrile] | 965 |  |  |
| N#Cc1ccccc1N1CCN(C(=O)[C@@H]2C[C@H](n3nnc(-c4ccc(F)cc4F)n3)CN2Cc2ccccc2Cl)CC1 [Example 5, 2-(4-{(2S,4S)-1-(2-Chloro-benzyl)-4-[5-(2,4-difluoro-phenyl)-tetrazol-2-yl]-pyrrolidine-2-carbonyl}-piperazin-1-yl)-benzonitrile] | 280 |  |  |
| N#Cc1ccccc1N1CCN(C(=O)[C@@H]2C[C@H](n3nnc(-c4ccc(F)cc4F)n3)CN2Cc2cccc(Cl)c2)CC1 [Example 6, 2-(4-{(2S,4S)-1-(3-Chloro-benzyl)-4-[5-(2,4-difluoro-phenyl)-tetrazol-2-yl]-pyrrolidine-2-carbonyl}-piperazin-1-yl)-benzonitrile] | 295 |  |  |
| N#Cc1ccccc1N1CCN(C(=O)[C@@H]2C[C@H](n3nnc(-c4ccc(F)cc4F)n3)CN2Cc2ccc(Cl)cc2)CC1 [Example 7, 2-(4-{(2S,4S)-1-(4-Chloro-benzyl)-4-[5-(2,4-difluoro-phenyl)-tetrazol-2-yl]-pyrrolidine-2-carbonyl}-piperazin-1-yl)-benzonitrile] | 208 |  |  |
| N#Cc1ccccc1N1CCN(C(=O)[C@@H]2C[C@H](n3nnc(-c4ccc(F)cc4F)n3)CN2CC2CCCCC2)CC1 [Example 8, 2-(4-{(2S,4S)-1-Cyclohexylmethyl-4-[5-(2,4-difluoro-phenyl)-tetrazol-2-yl]-pyrrolidine-2-carbonyl}-piperazin-1-yl)-benzonitrile] | 696 |  |  |
| N#Cc1ccccc1N1CCN(C(=O)[C@@H]2C[C@H](n3nnc(-c4ccc(F)cc4F)n3)CN2Cc2ccc(F)c(F)c2)CC1 [Example 9, 2-(4-{(2S,4S)-1-(3,4-Difluoro-benzyl)-4-[5-(2,4-difluoro-phenyl)-tetrazol-2-yl]-pyrrolidine-2-carbonyl}-piperazin-1-yl)-benzonitrile] | 387 |  |  |
| CC(=O)N(C)C1(c2ccccc2)CCN(CCC[C@]2(c3ccc(Cl)c(Cl)c3)CCCN(C(=O)c3ccccc3)C2)CC1 [SR 142,801, Osanetant] |  | inactive | active |
